Laboratory results reported in PubChem BioAssay (NCI).
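1) Cells in 96-well plates. 2) Compound, 48 h, 5 concentrations. 3) Linear interpolation between surrounding doses. 4) Unreached endpoint = highest concentration. TGI is the concentration that stops growth completely.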

How the values were obtained:
Assay in all cases: inhibition of tumour cell growth, NCI panel, 48 h
HL-60(TB) leukemia = system: HL-60(TB) leukemia
TK-10 renal = system: TK-10 renal
LOX IMVI melanoma = system: LOX IMVI melanoma
MOLT-4 leukemia = system: MOLT-4 leukemia
PC-3 prostate = system: PC-3 prostate
HS 578T breast = system: HS 578T breast
NCI-H23 lung = system: NCI-H23 lung
IGROV1 ovarian = system: IGROV1 ovarian
SK-OV-3 ovarian = system: SK-OV-3 ovarian
ACHN renal = system: ACHN renal
HCT-15 colon = system: HCT-15 colon
M14 melanoma = system: M14 melanoma
SR leukemia = system: SR leukemia
MALME-3M melanoma = system: MALME-3M melanoma
OVCAR-4 ovarian = system: OVCAR-4 ovarian
RXF 393 renal = system: RXF 393 renal
SK-MEL-5 melanoma = system: SK-MEL-5 melanoma
UACC-257 melanoma = system: UACC-257 melanoma
SK-MEL-2 melanoma = system: SK-MEL-2 melanoma
HOP-92 NSCLC = system: HOP-92 NSCLC
CCRF-CEM leukemia = system: CCRF-CEM leukemia
A549 NSCLC = system: A549 NSCLC
HCT-116 colon = system: HCT-116 colon
NCI-H226 lung = system: NCI-H226 lung
SF-539 CNS = system: SF-539 CNS
UO-31 renal = system: UO-31 renal
U251 CNS = system: U251 CNS
HT29 colon = system: HT29 colon
786-0 renal = system: 786-0 renal
MDA-N = system: MDA-N
A498 renal = system: A498 renal
OVCAR-3 ovarian = system: OVCAR-3 ovarian
MDA-MB-231 breast = system: MDA-MB-231 breast
SN12C renal = system: SN12C renal
COLO 205 colon = system: COLO 205 colon
SNB-19 CNS = system: SNB-19 CNS
K-562 leukemia = system: K-562 leukemia
NCI/ADR-RES ovarian = system: NCI/ADR-RES ovarian
UACC-62 melanoma = system: UACC-62 melanoma
CAKI-1 renal = system: CAKI-1 renal
EKVX NSCLC = system: EKVX NSCLC
KM12 colon = system: KM12 colon
NCI-H460 lung = system: NCI-H460 lung
BT-549 breast = system: BT-549 breast
HCC-2998 colon = system: HCC-2998 colon
SK-MEL-28 melanoma = system: SK-MEL-28 melanoma
SF-295 CNS = system: SF-295 CNS
MCF7 breast = system: MCF7 breast
HOP-62 NSCLC = system: HOP-62 NSCLC
OVCAR-5 ovarian = system: OVCAR-5 ovarian
SW-620 colon = system: SW-620 colon
OVCAR-8 ovarian = system: OVCAR-8 ovarian
SNB-75 CNS = system: SNB-75 CNS

Measured: TGI

CC(C)n1c(=O)n(-c2ccccc2)n(C(C)(C)C)c1=O
> 100 µM: all assays above
